Test results from PMC2857584 (Science (New York, N.Y.), 2009).

Biological target: T1, SepSecS (Homo sapiens, UniProt Q9HD40)
T1 sequence (Q9HD40 1-501): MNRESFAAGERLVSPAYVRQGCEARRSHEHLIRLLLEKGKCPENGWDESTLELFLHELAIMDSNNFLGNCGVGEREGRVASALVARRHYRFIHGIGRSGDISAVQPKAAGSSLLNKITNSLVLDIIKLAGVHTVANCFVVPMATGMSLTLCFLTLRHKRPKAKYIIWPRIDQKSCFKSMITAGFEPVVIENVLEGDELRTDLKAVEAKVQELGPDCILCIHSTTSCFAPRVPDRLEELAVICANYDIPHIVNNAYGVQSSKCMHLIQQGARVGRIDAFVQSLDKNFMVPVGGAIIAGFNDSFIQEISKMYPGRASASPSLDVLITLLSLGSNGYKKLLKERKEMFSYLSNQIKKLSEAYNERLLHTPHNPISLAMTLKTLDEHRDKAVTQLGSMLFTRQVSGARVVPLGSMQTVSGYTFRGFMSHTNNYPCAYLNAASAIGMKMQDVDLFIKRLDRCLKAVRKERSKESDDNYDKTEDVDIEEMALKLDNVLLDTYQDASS
Experiment: X-ray crystallography, […] A
Format: binding
Conditions: covalent; Schiff base (internal aldimine) with Lys284

Cc1ncc(COP(=O)(O)O)c(C=O)c1O [PLP, pyridoxal phosphate]
X-ray crystallography, 2.8 A: Each SepSecS monomer has a PLP cofactor covalently linked to the Nε-amino group
